The target of experiment [1] is His-GR-LBD (F602S mutated). Description: AlphaScreen or HTRF; co-factor peptide recruitment assay (Eu/APC fluorescence); 10 nM His-GR-LBD (F602S) pre-incubated 3 h at 4°C with Org 214007-0 (0.032 nM to 10 μM), then 100 nM TIF2-3 peptide, 8 nM streptavidin-APC and 1.25 nM anti-His-Eu, 20 h at 4°C. On the technique in general: Alpha assays give light when donor and acceptor beads are brought close together.

Experiment [2] concerns endometrium in estrogen-primed immature rabbits. Description: McPhail test (agonistic, progestational activity). The note with it: 0-4 scale; 5 days; MPA 0.05 mg/kg/day, Org 214007-0 0.5 mg/kg/day; n=2. It is filed as in vivo, rabbit. Here is the method: The McPhail (or anti-McPhail) test was used to evaluate potential progestational (or anti-progestational) activity of Org 214007-0 on the endometrium in estrogen-primed immature rabbits after once-daily administration. The female NZW rabbits were housed in pairs in a light- and temperature-controlled room, fed daily with 40 - 50 g standard pelleted food and with free access to tap-water. Before treatment with compounds rabbits were primed daily in the morning with a subcutaneous dose of 2 μg estradiol benzoate for 8 days. […] Transverse sections were prepared, stained with haematoxylin-eosin and evaluated microscopically. Endometrial development was scored on a 0-4 scale as follows: score 0: no development of glands; score 1: start of development of glands; score 2: clear-cut development of glands with ducts beginning to branch; score 3: about 2/3 of stroma bearing glandual tissue; score 4: more than 2/3 of stroma bearing glandular tissue. A score of 2 or higher in both rabbits was evaluated as a positive resonse.
For both the agonistic and antagonistic test immature female NZW rabbits (n=2 per treatment group) were primed with estrogen. […] One day after the last treatment the uterus was dissected and endometrial development was scored on a 0-4 scale. […]

In another experiment the test system is LPS-induced TNFα release. Description: LPS-induced TNFα acute inflammation mouse model. Type of experiment: in vivo. The note with it: RU486 50 mg/kg s.c. 30 minutes before oral compound dosing. Here is the method: For both the LPS-induced TNFα as well as the anti-CD3 induced IL-2 model, female Balb/c mice of 8–12 week old were used. Mice were treated orally with 0.2 ml compound or vehicle (water/mannitol (5%) with 5% DMSO/5% chremophore for the LPS model or with 0.5% gelatine for the anti-CD3 model). One hour after oral treatment animals were challenged i.p. with 0.2 ml of either 20 μg/mouse LPS (Sigma, E. coli serotype 055:B5) or 5 µg/mouse hamster anti-CD3 monoclonal (BD Biosciences Pharmingen, art. nr. 553057, clone 145-2C11). Ninety minutes after LPS injection or 3 hours after anti-CD3 challenge, blood samples were collected and serum levels of TNFα or IL-2 were determined via specific ELISAs (BD Biosciences Pharmingen, San Diego, CA, USA). In the experiment that included treatment with RU486 to block GR, mice were dosed subcutaneously with 50 mg/kg RU486 30 minutes before the oral compound dosing. ED50 and % efficacy (maximal percentage inhibition of TNFα or IL-2 release) are determined using a 3 parameter sigmoidal curve calculation. Statistical analysis of the results was performed using an one-way ANOVA (log) test.

The test system of experiment [3] is endometrium in estrogen-primed immature rabbits. Description: anti-McPhail test (antagonistic, anti-progestational activity). Type of experiment: in vivo, rabbit. To be noted: 0-4 scale; 7 days with progesterone; RU486 4 mg/kg/day, Org 214007-0 0.5 mg/kg/day oral; n=2. Here is the method: For the anti-McPhail test, the estrogen-primed rabbits were subsequently treated for 7 days with inducer progesterone (0.25 mg/kg/day s.c.) in combination with an oral treatment of either placebo, reference RU486 (4 mg/kg/day) or Org 214007-0 (0.5 mg/kg/day). The uterus preparation and evaluation of the endometrium was performed as described above.
For the antagonistic test, after oestrogen priming, rabbits were treated for 7 days with progesterone and placebo, reference RU486 or Org 214007-0. One day after the last treatment the uterus was dissected and endometrial development was scored on a 0-4 scale. […] After treatment with Org 214007-0 no reduction of the endometrial transformation was observed (score 3.31), indicative for no anti-progestagenic activity

“peptide representing Transcriptional Intermediary Factor 2 - LXXLL motif 3 (TIF2-3)”: in experiment [1], the percentage maximal efficacy of peptide recruitment with Org 214007-0, relative to prednisolone (100%) came to 67%. In the case of `CC(=O)O[C@]1(C(C)=O)CC[C@H]2[C@@H]3C[C@H](C)C4=CC(=O)CC[C@]4(C)[C@H]3CC[C@@]21C` [MPA, medroxyprogesterone acetate, reference compound], the “endometrial development score, agonistic test” value in experiment [2] was determined as 2.5.

Regarding `CC#C[C@]1(O)CC[C@H]2[C@@H]3CCC4=CC(=O)CCC4=C3[C@@H](c3ccc(N(C)C)cc3)C[C@@]21C` [RU486, mifepristone, reference compound], the “effect of RU486 on inhibition of TNFα by Org 214007-0 or prednisolone” value in the experiment on LPS-induced TNFα release is “fully antagonized”. Also, in experiment [3], the “endometrial development score, antagonistic test” value amounted to 0.5.
